From patent US20250195530A1, “POLQ INHIBITORS” (ASTRAZENECA AB, priority 2022, published 2025) come the findings set out here.

One assay has as its system DLD-1 BRCA2−/− cells. Put plainly: Homologous recombination synthetic lethal inhibition of proliferation, DLD-1 BRCA2-/- (Cell Titre Glo 3D). The format is cell-based. The note with it: for IC50: Homo sapiens. In short, it runs like this: (§1)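 Luminescent Cell Titre Glo 3D readout, taken on day 12 for homologous-recombination-deficient DLD-1 BRCA2−/− and day 7 for the wild-type control, after compound refresh on day 6. Compounds spanned 10 μM to 0.51 nM in three-fold steps; IC50 defined as 50% reduction of average maximum signal.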

The next assay deals with DLD-1 cells. Put plainly: Inhibition of proliferation, DLD-1 BRCA2 wt control (Cell Titre Glo 3D). The note with it: for IC50: Homo sapiens. The format is cell-based. The procedure, abridged: as §1
The mark [1] stands for this setting: DLD-1, DLD-1 BRCA2 −/− cells, mean, read-out: POLQ PD Prolif Lumin BRCA2 −/− mean pIC50 (converted).
[2] abbreviates: DLD-1, DLD1 BRCA2 wt cells, mean, read-out: POLQ PD Prolif Lumin DLD1 mean PIC50 (converted).
The mark [3] stands for this setting: DLD-1, 288 h, DLD-1 BRCA2−/− cells, 12 days, read-out: POLQ PD Prolif Lumin BRCA2 −/− mean pIC50 (converted).
Setting [4] is: DLD-1, 168 h, DLD-1 BRCA2 wt cells, 7 days, read-out: POLQ PD Prolif Lumin DLD1 mean pIC50 (converted).
[5] abbreviates: DLD-1, proliferation, luminescence, taken as DLD-1 BRCA2-/-, read-out: POLQ PD Prolif Lumin (converted).
Setting [6] is: DLD-1, proliferation, luminescence, second Prolif column (c6), taken as DLD-1 BRCA2 wt control, read-out: POLQ PD Prolif Lumin (converted).
The mark [7] stands for this setting: DLD-1, DLD-1 BRCA2-/- proliferation, column head only partly shown, read-out: POLQ PD Prolif Lumin (converted).
Setting [8] is: DLD-1, DLD-1 BRCA2 wt control proliferation, column head only partly shown, read-out: POLQ PD Prolif Lumin (converted).
Setting [9] is: DLD-1, first proliferation column (c5), DLD-1 BRCA2-/-, read-out: POLQ PD Prolif Lumin (converted).
Where [10] appears, read: DLD-1, second proliferation column (c6), DLD-1 BRCA2 wt control, read-out: POLQ PD Prolif Lumin (converted).

Read-outs that look alike come from different tables or passages of the source. A value given as a limit tells only on which side of the number the result lay.

Turning to `CC1(Oc2ncnc3c2nc(-c2ccc(OCCc4nn[nH]n4)cc2Cl)n3Cc2cccc(Cl)c2)CC1` [Example T92, 8-(4-(2-(2H-tetrazol-5-yl)ethoxy)-2-chlorophenyl)-9-(3-chlorobenzyl)-6-(1-methylcyclopropoxy)-9H-purine], the IC50 is 2 µM with DLD-1 BRCA2−/− cells (setting [1]) and more than 10 µM in the assay on DLD-1 cells (setting [2]).
Take `CC(=O)N1CCN(CCOc2cc(C)c(-c3nc4c(OC5(C)CC5)ncnc4n3Cc3ccccc3)cn2)CC1` [Example G4, 1-(4-(2-((5-(9-benzyl-6-(1-methylcyclopropoxy)-9H-purin-8-yl)-4-methylpyridin-2-yl)oxy)ethyl)piperazin-1-yl)ethan-1-one]: the IC50 was 1.26 µM in the assay on DLD-1 BRCA2−/− cells (setting [3]) and more than 10 µM with DLD-1 cells (setting [4]).
Consider `CC1(Oc2ncnc3c2nc(-c2cccc(OCCCCOCC(=O)O)c2Cl)n3Cc2cccc(Cl)c2)CC1` [Example T448, 2-(4-(2-chloro-3-(9-(3-chlorobenzyl)-6-(1-methylcyclopropoxy)-9H-purin-8-yl)phenoxy)butoxy)acetic acid], for which the IC50 in the assay with DLD-1 BRCA2−/− cells (setting [5]) is 0.0794 µM; in the assay on DLD-1 cells (setting [6]), more than 10 µM.
Regarding `Cc1cnc(Cn2c(-c3ccc(OC4CC5(CNC5)C4)cc3Cl)nc3c(OC4(C)CC4)ncnc32)s1` [Example T215, 2-((8-(4-((2-azaspiro[3.3]heptan-6-yl)oxy)-2-chlorophenyl)-6-(1-methylcyclopropoxy)-9H-purin-9-yl)methyl)-5-methylthiazole], the results for the IC50 with DLD-1 BRCA2−/− cells (setting [7]) and in the assay with DLD-1 cells (setting [8]) were 1 µM and more than 10 µM, respectively.
On to `C[C@@H](CCOc1ccc(-c2nc3c(OC4(C)CC4)ncnc3n2Cc2cc(Cl)ccc2F)c(Cl)c1)C(=O)O` [Example U11, (S)-4-(3-chloro-4-(9-(5-chloro-2-fluorobenzyl)-6-(1-methylcyclopropoxy)-9H-purin-8-yl)phenoxy)-2-methylbutanoic acid], for which the IC50 with DLD-1 BRCA2−/− cells (DLD-1, DLD-1 BRCA2 −/−, mean, read-out: POLQ PD Prolif Lumin BRCA2 −/− mean pIC50 (converted)) was 0.0501 µM; with DLD-1 cells (DLD-1, DLD1 BRCA2 wt, mean, read-out: POLQ PD Prolif Lumin DLD1 mean pIC50 (converted)), more than 6.31 µM.
For the molecule `CC1(Oc2ncnc3c2nc(-c2ccc(OCCN4CCNCC4)cc2Cl)n3Cc2cc(C(F)(F)F)ccn2)CC1` [Example K8, 8-(2-chloro-4-(2-(piperazin-1-yl)ethoxy)phenyl)-6-(1-methylcyclopropoxy)-9-((4-(trifluoromethyl)pyridin-2-yl)methyl)-9H-purine], the IC50 in the assay on DLD-1 BRCA2−/− cells (setting [3]) is 0.398 µM; in the assay with DLD-1 cells (setting [4]) it was 7.94 µM.
On to `Cc1cnc(Cn2c(-c3cccc(OCCCN4CC[C@@H](O)C4)c3Cl)nc3c(OC4(C)CC4)ncnc32)s1` [Example T392, (R)-1-(3-(2-chloro-3-(6-(1-methylcyclopropoxy)-9-((5-methylthiazol-2-yl)methyl)-9H-purin-8-yl)phenoxy)propyl)pyrrolidin-3-ol], for which the IC50 in the assay with DLD-1 BRCA2−/− cells (setting [5]) and with DLD-1 cells (setting [6]) was 0.794 µM in each case.
Consider `CC(CCOc1cccc(-c2nc3c(OC4(C)CC4)ncnc3n2Cc2cccc(Cl)c2)c1Cl)C(=O)O` (racemic) [Example T293, 4-(2-chloro-3-(9-(3-chlorobenzyl)-6-(1-methylcyclopropoxy)-9H-purin-8-yl)phenoxy)-2-methylbutanoic acid], for which the IC50 in the assay on DLD-1 BRCA2−/− cells (setting [7]) was 0.0316 µM; in the assay on DLD-1 cells (setting [8]), more than 3.16 µM.
As to `CC1(Oc2ncnc3c2nc(-c2ccc(OCCCO)cc2Cl)n3Cc2cc(Cl)ccn2)CC1` [Example T64, 3-(3-chloro-4-(9-((4-chloropyridin-2-yl)methyl)-6-(1-methylcyclopropoxy)-9H-purin-8-yl)phenoxy)propan-1-ol], the IC50 is 0.158 µM with DLD-1 BRCA2−/− cells (setting [1]) and more than 10 µM in the assay with DLD-1 cells (setting [2]).
As for `CC1(Oc2ncnc3c2nc(-c2ccc(O[C@H]4C[C@@H](C(=O)O)C4)cc2Cl)n3Cc2cccc(Cl)c2)CC1` [Example T254, (1s,3s)-3-(3-chloro-4-(9-(3-chlorobenzyl)-6-(1-methylcyclopropoxy)-9H-purin-8-yl)phenoxy)cyclobutane-1-carboxylic acid], the “POLQ PD Prolif Lumin” value is 6.8 in the assay with DLD-1 BRCA2−/− cells (DLD-1 BRCA2-/- proliferation, column head only partly shown) and less than 5.0 with DLD-1 cells (DLD-1 BRCA2 wt control proliferation, column head only partly shown).
`Cc1ccnc(Cn2c(-c3ccc(CC(=O)N4CCNC(=O)C4)cc3Cl)nc3c(OC4(C)CC4)ncnc32)c1` [Example T431, 4-(2-(3-chloro-4-(6-(1-methylcyclopropoxy)-9-((4-methylpyridin-2-yl)methyl)-9H-purin-8-yl)phenyl)acetyl)piperazin-2-one]: the IC50 is 2.51 µM in the assay on DLD-1 BRCA2−/− cells (setting [5]) and more than 10 µM with DLD-1 cells (setting [6]).
As to `Cc1cnc(Cn2c(-c3ccc(OCCCN4CC[C@@H](O)C4)cc3Cl)nc3c(OC4(C)CC4)ncnc32)s1` [Example T391, (R)-1-(3-(3-chloro-4-(6-(1-methylcyclopropoxy)-9-((5-methylthiazol-2-yl)methyl)-9H-purin-8-yl)phenoxy)propyl)pyrrolidin-3-ol], the values for the IC50 in the assay with DLD-1 BRCA2−/− cells (setting [5]) and in the assay on DLD-1 cells (setting [6]) were 0.501 µM and more than 10 µM, respectively.
On to `N#CC1(Oc2ncnc3c2nc(-c2ccc(OCCN4CCNCC4)cc2Cl)n3Cc2ccccc2)CC1` [Example 13, 1-((9-Benzyl-8-(2-chloro-4-(2-(piperazin-1-yl)ethoxy)phenyl)-9H-purin-6-yl)oxy)cyclopropane-1-carbonitrile], for which the values for the IC50 with DLD-1 BRCA2−/− cells (setting [3]) and with DLD-1 cells (setting [4]) were 0.251 µM and more than 10 µM, respectively.
As to `CC1(Oc2ncnc3c2nc(-c2ccc(OCCN4C5CNCC4C5)cc2Cl)n3Cc2ccccc2)CC1` [Example R15, 6-(2-(4-(9-benzyl-6-(1-methylcyclopropoxy)-9H-purin-8-yl)-3-chlorophenoxy)ethyl)-3,6-diazabicyclo[3.1.1]heptane], the values for the IC50 in the assay on DLD-1 BRCA2−/− cells (setting [3]) and in the assay on DLD-1 cells (setting [4]) were 0.501 µM and 5.01 µM, respectively.
With `Cc1cnc(Cn2c(-c3ccc(OCCN4CCNCC4)cc3Cl)nc3c(OC4(C)CC4)ncnc32)s1` [Example L3, 2-((8-(2-chloro-4-(2-(piperazin-1-yl)ethoxy)phenyl)-6-(1-methylcyclopropoxy)-9H-purin-9-yl)methyl)-5-methylthiazole], the IC50 was 0.398 µM in the assay with DLD-1 BRCA2−/− cells (setting [3]) and more than 10 µM in the assay with DLD-1 cells (setting [4]).
Taken in the same sequence, the figures for `CC(=O)N1CC(Oc2cc(C)c(-c3nc4c(OC5(C)CC5)ncnc4n3Cc3ccccc3)cn2)C1` [Example G10, 1-(3-((5-(9-benzyl-6-(1-methylcyclopropoxy)-9H-purin-8-yl)-4-methylpyridin-2-yl)oxy)azetidin-1-yl)ethan-1-one] were 0.631 µM and more than 10 µM.
As for `CC1(Oc2ncnc3c2nc(-c2ccc(OCCN4CCNCC4)cc2Cl)n3Cc2nnco2)CC1` [Example T76, 2-((8-(2-chloro-4-(2-(piperazin-1-yl)ethoxy)phenyl)-6-(1-methylcyclopropoxy)-9H-purin-9-yl)methyl)-1,3,4-oxadiazole], the IC50 in the assay on DLD-1 BRCA2−/− cells (setting [1]) was more than 10 µM; with DLD-1 cells (setting [2]), more than 3.16 µM.
For the molecule `Cc1cnc(Cn2c(-c3ccc(OC[C@H]4CCCN4)cc3Cl)nc3c(OC4(C)CC4)ncnc32)s1` [Example T139, (R)-2-((8-(2-chloro-4-(pyrrolidin-2-ylmethoxy)phenyl)-6-(1-methylcyclopropoxy)-9H-purin-9-yl)methyl)-5-methylthiazole], the IC50 in the assay on DLD-1 BRCA2−/− cells (setting [9]) was 0.398 µM; in the assay on DLD-1 cells (setting [10]), more than 10 µM.
As for `CC1(Oc2ncnc3c2nc(-c2ccc(OCCCC(C)(C)C(=O)O)cc2Cl)n3Cc2cccc(Cl)c2)CC1` [Example T563, 5-(3-chloro-4-(9-(3-chlorobenzyl)-6-(1-methylcyclopropoxy)-9H-purin-8-yl)phenoxy)-2,2-dimethylpentanoic acid], the IC50 in the assay with DLD-1 BRCA2−/− cells (setting [9]) is 0.2 µM; with DLD-1 cells (setting [10]), 10 µM.
For `C[C@@H]1CN(CCOc2ccc(-c3nc4c(OC5(C)CC5)ncnc4n3Cc3ccccc3)c(Cl)c2)C[C@H](C)N1` [Example R9, (cis)-9-benzyl-8-(2-chloro-4-(2-(3,5-dimethylpiperazin-1-yl)ethoxy)phenyl)-6-(1-methylcyclopropoxy)-9H-purine], the values for the IC50 in the assay on DLD-1 BRCA2−/− cells (setting [3]) and in the assay with DLD-1 cells (setting [4]) were 0.0501 µM and 1.58 µM, respectively.
